This is an account of results in PubChem BioAssay (NCI).

In general, TGI refers to the concentration at which net growth stops. Higher therefore signals less potent growth arrest.

What all share (assay): DTP human tumour cell line panel, 48 h
The subject of test [1] is 786-0 renal.
The test system of test [2] is BT-549 breast.
Test [3] concerns DU-145 prostate.
For test [4], the system named is HS 578T breast.
The subject of test [5] is HT29 colon.
Test [6] has as its system K-562 leukemia.
The subject of test [7] is MALME-3M melanoma.
Test [8] relates to MDA-MB-231 breast.
For test [9], the system named is MDA-N.
The test system of test [10] is OVCAR-3 ovarian.
Test [11] concerns OVCAR-5 ovarian.
Test [12] has as its system OVCAR-8 ovarian.
Test [13] concerns RXF 393 renal.
Test [14] has as its system SK-MEL-28 melanoma.
Test [15] has as its system SK-MEL-5 melanoma.
Test [16] has as its system SNB-19 CNS.
Test [17] has as its system TK-10 renal.
Test [18] concerns UO-31 renal.
The subject of test [19] is CCRF-CEM leukemia.
The subject of test [20] is SF-539 CNS.

Each structure is given as a SMILES string.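 Growth conditions: 96-well plates. Treatment: test compound, 48 hours, 5 concentrations. Analysis: linear interpolation between bracketing concentrations; unreached endpoints set to highest concentration. TGI: total growth inhibition.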 Where a SMILES comes first, the peptide text is derived from it. The star is where a group is joined. Cbz = O=C(OCc1ccccc1)* Bounds are passed on as bounds.

As for `CC(C)(C)OC(=O)NCCC1CNc2ccccc21` (stereo not given), the TGI in test [1], in [2], in test [3], in test [4], in test [5] and in test [6] was over 100 µM throughout. Further, the TGI in [7], in [8], in test [9], in test [10], in test [11] and in test [12] was over 100 µM throughout. The TGI in test [13], in test [14], in test [15], in test [16], in [17] and in [18] was over 100 µM throughout.

As to `CC(=O)OCC1=CC2OC(=O)C3=COC(OC4OC(CO)C(O)C(O)C4O)C1C32` (stereo not given), the total growth inhibition concentration (TGI) in test [1], in test [2], in test [19], in test [3], in test [4] and in test [5] was over 100 µM throughout. The TGI in [8], in test [9], in [10], in test [11], in test [12] and in test [20] was over 100 µM each time. In addition, the TGI in test [14], in test [15], in test [16], in [17] and in test [18] was over 100 µM each time.

Turning to `CCOC(=O)[C@@]1(C(C)=O)CC(C)=C(C)C[S@]1=O`, the TGI in test [1], in test [2], in [3], in test [4], in test [6] and in test [7] was over 100 µM in each case. Further, the TGI in [8], in test [9], in test [10], in test [11], in test [12] and in [13] was over 100 µM in each case. In addition, the TGI in test [14], in test [16], in test [17] and in test [18] was over 100 µM each time.

As to `CCOP(=O)(Nc1ccc(-c2ccc(N)cc2)cc1)OCC`, the TGI in [1], in test [2], in [3], in test [4], in test [5] and in test [6] was over 100 µM throughout. Further, the TGI in test [7], in test [8], in test [9], in test [10], in test [11] and in test [12] was over 100 µM each time. The TGI in test [13] is 98.8 µM; in test [14], over 100 µM; in [15], over 100 µM; in [16] it was over 100 µM; in test [17], over 100 µM; in [18] it was over 100 µM.

With `Cc1ccc2nc(CN(CCO)CCO)cc(=O)n2c1`, the TGI in [1], in test [2], in test [19], in [3], in test [4] and in [5] was over 100 µM each time. In addition, the TGI in test [6], in test [7], in [8], in test [9], in [10] and in test [11] was over 100 µM in each case. Moreover, the TGI in test [12], in test [20], in test [14], in [16], in test [17] and in test [18] was over 100 µM each time.

For the compound `COC(=O)C(CC(C)C)NC(=O)C(CCCN=C(N)N)NC(=O)OCc1ccccc1` (stereo not drawn) (Cbz-Arg-Leu-OMe; configuration not given here), the TGI in test [1], in test [2], in test [19], in test [3], in [4] and in test [5] was over 100 µM each time. Besides, the TGI in test [6], in test [7], in test [8], in test [9], in test [10] and in test [11] was over 100 µM throughout. In addition, the concentration for total growth inhibition (TGI) in [12], in test [13], in test [14], in [15], in test [16] and in [17] was over 100 µM in each case. In addition, the concentration for total growth inhibition (TGI) in test [18] is over 100 µM.

Consider `O=C(O)c1ccccc1/C=C1/Cc2ccc3c(c2C1=O)CCC3`, for which the TGI was over 100 µM in test [1]; 96.8 µM in [2]; over 100 µM in test [19]; over 100 µM in [3]; over 100 µM in test [4]; over 100 µM in test [5]. Moreover, the TGI in test [6] was over 100 µM; in [7], over 100 µM; in test [9], over 100 µM; in test [10] it was 95.2 µM; in test [11] it was over 100 µM; in test [12], over 100 µM. Further, the concentration for total growth inhibition (TGI) in test [13] is over 100 µM; in test [20] it was 43.6 µM; in test [14] it was over 100 µM; in test [15] it was 46.2 µM; in test [16], over 100 µM; in [17], over 100 µM. This compound also registered a TGI in [18] of over 100 µM.
